Experiments:
human STING (HAQ) [1] = target: T1, human STING (HAQ) (Homo sapiens, UniProt Q86WV6, G230A/H232R/R293Q); test: biochemical; assay type: binding; settings: 1 μM protein, compound at 100 μM
Description: (§1) DSF monitors thermal unfolding of protein in the presence of a fluorescent dye and is typically performed using a real-time PCR instrument. The temperature at which a protein unfolds is measured by an increase in the fluorescence of a dye with affinity for hydrophobic parts of the protein that are gradually exposed during unfolding. The fluorescence of the dye is quenched in aqueous environments, but when the dye associates with hydrophobic sites on the unfolded protein, its fluorescence increases. The fluorescence intensity is plotted as a function of the temperature, generating a sigmoidal curve that can be described by a two-state transition. The inflection point of the transition curve (Tm) is calculated using simple equations such as that of Boltzman.
(§2) Sealed plates were then placed into a Bio-Rad CFX96/C1000 thermocycler and FRET scanning mode (λ^excitation of 490 nm and reads at λ^emission of 570 nm) was used to measure fluorescence intensity. […] The melting point (Tm) obtained for STING protein alone was subtracted from Tm obtained for protein incubated with ligand to generate ΔTm values listed in the table below.
(§3) These additional compounds were tested as described above, however the protein concentration was 2 μM.

huSTING (WT) [2] = target: T2, huSTING (WT) (Homo sapiens (Human), UniProt Q86WV6, H232R); test: Differential scanning fluorimetry (DSF), huSTING (WT); assay type: binding; settings: read-out: DSF huSTING (WT) ΔTm (° C.)
Description: as §1, §2, §3
Target sequence in this assay (Q86WV6 other isoform, or with tags, fused parts or gaps, stated change not applied): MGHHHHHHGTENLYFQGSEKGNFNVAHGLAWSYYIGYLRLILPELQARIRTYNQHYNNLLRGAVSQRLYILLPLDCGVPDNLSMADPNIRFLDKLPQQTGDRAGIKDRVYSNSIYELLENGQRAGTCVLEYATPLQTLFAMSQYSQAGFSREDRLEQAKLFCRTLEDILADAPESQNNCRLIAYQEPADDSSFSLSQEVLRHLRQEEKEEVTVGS

huSTING (HAQ) = huSTING (HAQ) (Homo sapiens (Human), UniProt Q86WV6, G230A/H232R/R293Q/R71H); test: THP-1 reporter cell line assay, THP-1 STING Lucia ISG cells; assay type: cell-based; settings: THP-1 STING Lucia ISG cells; 24 h; top concentration 50 μM; read-out: Cellular EC50 huSTING (HAQ)
huSTING (HAQ), sequence (Q86WV6 whole entry R71H/G230A/H232R/R293Q): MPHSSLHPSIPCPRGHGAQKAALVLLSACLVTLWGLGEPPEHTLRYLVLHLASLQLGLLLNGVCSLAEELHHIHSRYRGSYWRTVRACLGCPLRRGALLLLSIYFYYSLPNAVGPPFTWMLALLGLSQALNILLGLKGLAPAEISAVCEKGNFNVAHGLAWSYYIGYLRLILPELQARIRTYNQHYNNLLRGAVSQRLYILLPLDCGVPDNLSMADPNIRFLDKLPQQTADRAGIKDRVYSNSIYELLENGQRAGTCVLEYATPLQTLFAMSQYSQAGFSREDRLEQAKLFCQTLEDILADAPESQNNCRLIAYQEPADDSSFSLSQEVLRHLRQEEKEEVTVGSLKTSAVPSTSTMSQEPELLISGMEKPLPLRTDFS

huSTING (WT) [3] = target: T2, huSTING (WT); test: THP-1 reporter cell line assay, THP-1-Dual KI-hSTING-R232 cells; assay type: cell-based; settings: read-out: Cellular EC50 huSTING (WT)
Target sequence in this assay (Q86WV6 whole entry H232R): as the sequence (Q86WV6 whole entry R71H/G230A/H232R/R293Q) above, with H71R, A230G, Q293R counted along it

human STING (HAQ) [4] = target: T1, human STING (HAQ); settings: read-out: SPR (HAQ) KD; 25° C.

T1 sequence (Q86WV6 whole entry G230A/H232R/R293Q, looked up): as the sequence (Q86WV6 whole entry R71H/G230A/H232R/R293Q) above, with H71R counted along it

Row | Structure (SMILES) | DSF huSTING (HAQ) ΔTm (° C.) (human STING (HAQ) [1]) [°C] | ΔTm at 100 µM (huSTING (WT) [2]) [°C] | EC50 (huSTING (HAQ)) [µM] | EC50 (huSTING (WT) [3]) [µM] | Kd (human STING (HAQ) [4]) [µM]
1 | COc1cc(C(N)=O)ccc1OCc1c(C(=O)O)sc2cccc(Cl)c12 [Example 30, 3-((4-Carbamoyl-2-methoxyphenoxy)methyl)-4-chlorobenzo[b]thiophene-2-carboxylic acid] | 5.4 | -0.32 | 36.3 | > 50 | 22.1
2 | NC(=O)c1ccc(OCc2c(C(=O)O)sc3cc(F)cc(F)c23)cc1 [Example 32, 3-((4-Carbamoylphenoxy)methyl)-4,6-difluorobenzo[b]thiophene-2-carboxylic acid] | 7.23 | 0.63 | > 50 | > 50 | 7.75
3 | COc1cccc2sc(C(=O)O)c(COc3ccc(C(N)=O)cc3)c12 [Example 34, 3-((4-Carbamoylphenoxy)methyl)-4-methoxybenzo[b]thiophene-2-carboxylic acid] | 10.07 | 3.76 | > 50 | > 50 | 2.48
4 | NC(=O)c1ccc(OCc2c(C(=O)O)sc3cccc(C(F)(F)F)c23)cc1 [Example 36, 3-((4-Carbamoylphenoxy)methyl)-4-(trifluoromethyl)benzo[b]thiophene-2-carboxylic acid] | 12.31 | 5.96 | > 50 | > 50 | 1.33
5 | NC(=O)c1ccc(OCc2c(C(=O)O)sc3cccc(Cl)c23)c(Cl)c1 [Example 38, 3-((4-Carbamoyl-2-chlorophenoxy)methyl)-4-chlorobenzo[b]thiophene-2-carboxylic acid] | 6.02 | -1.4 | > 50 | > 50 | 16.4
6 | NC(=O)c1cc(Cl)c(OCc2c(C(=O)O)sc3cccc(Cl)c23)c(Cl)c1 [Example 40, 3-((4-Carbamoyl-2,6-dichlorophenoxy)methyl)-4-chlorobenzo[b]thiophene-2-carboxylic acid] | 9.91 | 3.66 | > 50 | 39.7 | 2.8
7 | N#Cc1cc(C(N)=O)ccc1OCc1c(C(=O)O)sc2cccc(Cl)c12 [Example 44, 3-((4-Carbamoyl-2-cyanophenoxy)methyl)-4-chlorobenzo[b]thiophene-2-carboxylic acid] | 7.64 | 1.3 |  |  | 7.95
8 | NC(=O)c1ccc(OCc2c(C(=O)O)sc3cccc(Cl)c23)cn1 [Example 46, 3-(((6-Carbamoylpyridin-3-yl)oxy)methyl)-4-chlorobenzo[b]thiophene-2-carboxylic acid] | 7.26 | 1.77 | > 50 | > 50 | 9.7
9 | Nc1noc2cc(OCc3c(C(=O)O)sc4cccc(Cl)c34)ccc12 [Example 48, 3-(((3-Aminobenzo[d]isoxazol-6-yl)oxy)methyl)-4-chlorobenzo[b]thiophene-2-carboxylic acid] | 1.92 | -4.63 | > 50 | > 50 | 16.3
10 | NC(=O)c1ccc(OCc2c(C(=O)O)sc3cccc(F)c23)cc1Cl [Example 50, 3-((4-Carbamoyl-3-chlorophenoxy)methyl)-4-fluorobenzo[b]thiophene-2-carboxylic acid] | 5.11 | 0.02 | > 50 | > 50 | 20.9
11 | NC(=O)c1ccc(OCc2c(C(=O)O)sc3cccc(F)c23)cc1C(F)(F)F [Example 52, 3-((4-Carbamoyl-3-(trifluoromethyl)phenoxy)methyl)-4-fluorobenzo[b]thiophene-2-carboxylic acid] | −1.22 | -2.15 | > 50 | > 50 | 260
12 | N#Cc1cccc2sc(C(=O)O)c(COc3ccc(C(N)=O)cc3)c12 [Example 63, 3-((4-Carbamoylphenoxy)methyl)-4-cyanobenzo[b]thiophene-2-carboxylic acid] | 8.07 | 1.88 |  |  | 9.15
13 | COc1cc(C(N)=O)cc(C)c1OCc1c(C(=O)O)sc2cccc(Cl)c12 [Example 73, 3-((4-carbamoyl-2-methoxy-6-methylphenoxy)methyl)-4-chlorobenzo[b]thiophene-2-carboxylic acid] | 1.79 | -1.03 |  |  | 67
